Measured values from the pKa sets of Baltruschat and Czodrowski (2020).
Where a SMILES comes first, the peptide text is derived from it.

Conditions: acidic group

Row | Compound | pKa
1 | CN(C)/C=N/c1ccc(O)cc1 | 10.5
2 | Oc1c(Cl)ccc(Cl)c1Cl | 6.12
3 | O=S1(=O)N=CNc2nc[nH]c21 | 5.59
4 | CC1(C)C=CC(C)(c2cc3ccc(=O)oc3cc2O)CC1 (stereo not drawn) | 8.12
5 | N#Cc1c[nH+]c2ccccc2c1O | -2.08
6 | CC1(C)CC(=O)C2=C(C1)NC1=C(C2)C(=O)CC(C)(C)C1 | 3.6
7 | CCN(CC)C(=S)NC(=O)c1cccc(C)c1 | 8.36
8 | Cc1ccc(C(=O)Oc2ccccc2)c(O)c1 | 9.44
9 | O=[PH]([O-])C(NCc1cccnc1)c1ccccc1O (stereo not drawn) | 12
10 | CCCOc1ccc(C(=O)O)cc1 | 4.63
11 | O=[N+]([O-])c1cccc2c[n+](CCCO)ccc12 | 10.4
12 | NCc1nc2ccccc2[nH]1 | 12.8
13 | Cc1ccc(O)c(C)c1 | 10.6
14 | [NH3+][C@H]1CCCC[C@@H]1C(=O)O | 3.59
15 | O=[N+]([O-])c1cccc(O)c1 | 8.31
16 | CCC(=O)NO | 9.46
17 | Oc1ccc(O)cc1 | 9.93
18 | CC(C)O | 16.1
19 | O=C(C[n+]1cccc2c3ccccc3ccc21)c1ccccc1 | 11.3
20 | Cn1cc([NH3+])cc1C(=O)O | 3.5
21 | CCOc1ccc(C(=O)O)c(C)c1 | 4.54
22 | CCCCCCCCCCCC(=O)O | 4.89
23 | Cc1nc2c(=O)[nH]c(=O)[nH]c2n1C | 6.2
24 | C[C@]12CC[C@@H]3c4ccc(O)cc4CC[C@H]3[C@@H]1C[C@@H](O)[C@@H]2O | 10.8
25 | COc1ccc(CC(=O)O)cc1 | 4.36
26 | Nc1nc(N)c2[nH]c(N)nc2n1 | 10.8
27 | O=C(O)C[C@]1(O)C[C@H]2CC[C@@H]1C2 | 4.57

Row | Compound | pKa
28 | CCc1nc2cc3ccccc3cc2[nH]1 | 12.9
29 | Cc1cccc(/C=N/O)n1 | 10
30 | CC1=C/C(=N\c2ccc(O)cc2)C(C(C)C)=CC1=O | 8.85
31 | C[NH+]1[C@H]2CC=C(C(=O)O)[C@@H]1CC2 | 3.93
32 | CCc1ccccc1C(=O)O | 3.79
33 | CC[NH+]1CCC[C@@H]1CNC(=O)c1c(O)cccc1OC | 8.7
34 | O=S(=O)(Nc1ncc(Cl)cn1)c1ccc(O)cc1 | 5.59
35 | C[n+]1ccccc1S | -1.42
36 | Cc1cccc(C(=O)O)c1C | 3.73
37 | NC(=O)CN(CCN(CC(N)=O)Cc1ccccc1O)Cc1ccccc1[O-] | 11
38 | COc1ccc(/C=N/O)cc1 | 11
39 | O=C1CC(=O)NC(=S)N1 | 4.15
40 | COCC1=C(C(=O)O)CC1 | 4.31
41 | N[n+]1ccccc1O | 2.1
42 | c1ccc(-c2c[nH]c(-c3ccccc3)n2)cc1 | 12.6
43 | O=C(CC(=O)C(F)(F)F)c1ccccc1 | 6.3
44 | C[NH+](C)CCc1ccc(O)cc1 | 9.46
45 | C[n+]1cccc(O)c1 | 4.96
46 | O=C(O)C(CO)[NH2+]Cc1ccccc1O (stereo not drawn) | 2.1
47 | C[C@@H]1CCCC[C@@H]1C(=O)O | 5.04
48 | C=C(C)C1=C(O)CC(C)CC1 (stereo not drawn) | 11.9
49 | O=C(O)c1ccc(Oc2ccccc2)cc1 | 4.52
50 | C[n+]1c2ccccc2cc2cc(N)ccc21 | 9.8
51 | Nc1ccc[nH+]c1C(=O)O | 1.33
52 | O=S(=O)(Nc1nccs1)c1ccccc1 | 5.73
53 | Cc1cc(C(=O)O)c(C)o1 | 4.64
54 | S=C(Nc1ccc(Cl)c(Cl)c1)c1ccccc1 | 9.96

Row | Compound | pKa
55 | C/C(=N/O)c1ccc(O)cc1O | 8.35
56 | C[C@H]([NH3+])C(=O)O | 2.42
57 | O=C1CCc2cc(Cl)c([N+](=O)[O-])cc2C1 | 11.3
58 | COC(=O)CCS | 9.33
59 | Cc1cc([N+](=O)[O-])cc2c1nnn2O | 3.43
60 | CC(=O)/C(=N\O)C(C)C | 9.5
61 | NNC(=O)c1cccc(N)c1 | 12.4
62 | CN1CC(=O)NC1=O | 11.4
63 | CCCc1c(-c2ccccc2)n[nH]c1O | 8
64 | [O-]c1[nH+]c(O)c(Br)c[n+]1[C@H]1O[C@@H](CO)[C@H](O)[C@@H]1O | -0.9
65 | COc1c(C)cc2c(c1C(=O)O)COC2 | 3.13
66 | Sc1cc2ccccc2cn1 | 8.58
67 | Cc1ccc(C(=O)O)cc1 | 4.37
68 | O=C1C=C(S(=O)(=O)[O-])c2cn[nH]c2/C1=N\O | 5.85
69 | O=C(O)C1CCCC[NH2+]1 (stereo not drawn) | 2.5
70 | [NH3+]CCC[SeH] | 6.27
71 | C=C(CCCC)C(=O)O | 4.8
72 | O=C(O)c1cc([N+](=O)[O-])ccc1Sc1ccccc1 | 3.22
73 | CC(=O)NS(=O)(=O)c1ccc(C)cc1 | 4.8
74 | O=C(O)Cc1ccsc1 | 4.07
75 | O=C(O)C(CO)[NH2+]Cc1cc(Cl)ccc1O (stereo not drawn) | 2.12
76 | CCN(CC)S(=O)(=O)c1ccsc1C(=O)O | 2.77
77 | O=C(O)c1ccc([N+](=O)[O-])cc1Cl | 1.96
78 | CCCCOc1ccc(C(=O)O)cc1 | 4.48
79 | COc1ccc(C(=S)Nc2ccc(Br)cc2)cc1 | 10.9

Same assay, conditions: basic group

Row | Compound | pKa
80 | CN(C)/C=N/c1ccc(O)cc1 | 8.28
81 | CC1CC(/C=C2\CC(C)(C)CN2)=NC1(C)C (stereo not drawn) | 12.1
82 | c1ccc(-c2cccc(-c3cccc[nH+]3)n2)nc1 | 3.28
83 | CC[NH+](CC)CCNc1nc(N)nc(C)c1C | 7.9
84 | CCC(C)(C)NC1CCCCC1 | 11.2
85 | Cc1cc(-c2ccccc2)nn(CCN2CCOCC2)c1=N | 9.7
86 | Cc1cc(N)ccc1-c1ccc(N)cc1C | 4.9
87 | CCn1ccnc1C | 8.09
88 | O=C(Cc1ccccc1)C(CN1CCOCC1)c1ccccc1 (stereo not drawn) | 6.17
89 | [NH3+][C@@H](Cc1nc[nH]c1I)C(=O)[O-] | 4.18
90 | CC(N)CO (stereo not drawn) | 9.43
91 | O=[PH]([O-])C(NCc1cccnc1)c1ccccc1O (stereo not drawn) | 8.05
92 | NCCCC(=O)[O-] | 10.5
93 | COc1ccncn1 | 2.5
94 | CC(C)(N)C(C)(C)N | 10.1
95 | Cc1cc(N)ccc1C[NH3+] | 4.26
96 | NCc1nc2ccccc2[nH]1 | 8.02
97 | CCC(C)C(=O)CCN1CCOCC1 (stereo not drawn) | 7.07
98 | [NH3+]CCN1CCOCC1 | 4.84
99 | NNC(=O)c1ccc[nH+]c1 | 1.64
100 | CCc1ccc([C@@H]2CCC[NH+]2C)cn1 | 3.69
101 | NCCCc1ccccc1 | 10.3
102 | Cn1ccc(=NC(=O)c2ccccc2)cc1 | 9.89
103 | C/N=C(\C)SC | 7.71

Row | Compound | pKa
104 | c1ccc(-c2ccc3nccn3n2)cc1 | 4.71
105 | O=[N+]([O-])c1cccc2nc3ccccc3c(NCCCO)c12 | 7.55
106 | c1cnc2c(c1)ccc1ncccc12 | 4
107 | O=C1CC[C@H]2N1CC[C@H]1c3ccccc3CCN12 | 4.89
108 | CC(C)(C)N1CCCC(=O)C(O)CCC1 (stereo not drawn) | 7.6
109 | CNO | 6.05
110 | Oc1ccccc1CN1CCCNCCC[NH2+]CCC1 | 6.64
111 | NNC(=O)[C@@H](N)Cc1ccccc1 | 7.06
112 | O=C([O-])c1ccncc1 | 4.9
113 | O=[PH]([O-])C([NH2+]Cc1cccnc1)c1ccccc1O (stereo not drawn) | 3.25
114 | CNC(=O)/C=C(\c1ccc2nc(N)n(C(C)C)c2c1)c1cccc(F)c1F | 6.69
115 | COC(=O)c1ccc2ccccc2n1 | 1.75
116 | Nc1nc(N)c2[nH]c(N)nc2n1 | 6.23
117 | CCc1nc2cc3ccccc3cc2[nH]1 | 6.14
118 | Cn1ncc2c(N)ncnc21 | 4.32
119 | CN(C)/C=N/c1ccccc1 | 9
120 | CN(C)c1ccc(C(O)c2ccc(N(C)C)cc2)cc1 | 5.61
121 | CCN(CC)S(=O)(=O)c1ccc(N)cc1 | 1.75
122 | c1ccc2[nH+]c(-c3ccncc3)[nH]c2c1 | 4.47
123 | CC(N)C/C(N)=N/O (stereo not drawn) | 9.15
124 | CCNN(CC)CC | 7.08
125 | CN1C(=N)C(C)(C)c2ccccc21 | 9.25
126 | O=[N+]([O-])c1ccc2[nH]c(CCl)nc2c1 | 2.21
127 | CC(=O)Nc1cccc2cc3ccccc3nc12 | 3

Row | Compound | pKa
128 | CC(C)=NNC1CCN(C)CC1 | 8.9
129 | CC(C)N1C[Si](C)(C)O[Si](C)(C)C1 | 10
130 | CC(C)c1ccccc1N | 4.42
131 | C=CCN1CCCCC1 | 9.66
132 | CNCCN | 10.4
133 | Cc1ccccc1/C(=N\CCCN(C)C)c1ccccc1N | 9
134 | CC(C)(C)c1ccc(N)cc1 | 4.95
135 | CC(C)(N)Cc1ccccc1 | 10.1
136 | O=C([O-])[C@@H]1O[C@H](Oc2ccc3cccnc3c2)[C@@H](O)[C@H](O)[C@H]1O | 5.32
137 | Cc1n[nH]cc1Cl | 1.4
138 | CCC[C@H]1NC(C(=O)[O-])CS1 (stereo partly drawn) | 6.25
139 | CCN(CC)Cc1c(C)cccc1O | 8.65
140 | NCC(O)C[NH3+] | 8.19
141 | Cc1cc(C)n(C)c(=O)n1 | 4
142 | Brc1ccc(C2NCCS2)cc1 (stereo not drawn) | 5.05
143 | CCCn1cncn1 | 2.36
144 | NCCC[NH3+] | 8.77
145 | c1c[nH]c(P(c2ncc[nH]2)c2ncc[nH]2)n1 | 7.44
146 | CC[C@H]1CN2CC[C@@H]1C[C@H]2[C@H](O)c1ccnc2ccc(OC)cc12 | 8.67
147 | CCNCl | 0.93
148 | CC(CN)/C(N)=N/O (stereo not drawn) | 9.15
149 | CCOc1ccc2ccc(OCC)c(N3CCOCC3)c2c1N1CCOCC1 | 12.5
150 | c1cncc(-c2ccoc2)c1 | 4.93
151 | [NH3+]CCC(=O)N[C@@H](Cc1cnc[nH]1)C(=O)[O-] | 6.74

Row | Compound | pKa
152 | Cc1cccc(/N=N/c2ccc(N(C)C)cc2)c1 | 2.33
153 | CCN(C)CCCNC(=O)/C=N/[O-] | 9.97
154 | Cc1cc(C)nc([S-])n1 | 8.5
155 | NNC(=O)c1cccc(N)c1 | 3.75
156 | C[Si](C)(CNC1CCCCC1)O[Si](C)(C)CNC1CCCCC1 | 10.1
157 | CN(CCC[NH+](C)C)CCC[NH+](C)C | 6.4
158 | NC[C@@H](O)[C@H]1NC(N)=[NH+][C@@H]1C(=O)[O-] | 9.3
159 | O=C([O-])[C@@H]1O[C@H](Oc2ccc3ncccc3c2)[C@@H](O)[C@H](O)[C@H]1O | 5
160 | Sc1cc2ccccc2cn1 | 0.39
161 | CCN(CC)CCCC#N | 9.29
162 | CCCC[NH2+]CCN | 7.53
163 | C1CC2CC1NN2 | 7.94
164 | Cc1ccccc1C(=NCCN(C)C)c1ccccc1C | 8.5
165 | N[C@@H](Cc1c[nH]cn1)C(=O)NCC(=O)[O-] (H-His-Gly-OH) | 7.82
166 | N[C@H]1CCCC[C@@H]1C(=O)[O-] | 10.1
167 | CCCCCc1cccnn1 | 3.7
168 | CC(C)(C)c1ccccn1 | 5.72
169 | NOCc1ccc(Cl)cc1 | 4.22
170 | C=CCCN1C[C@H]2C[C@@H](C1)c1cccc([O-])[n+]1C2 | 7
171 | CN(C)c1ccc(N)cc1 | 6.37
172 | Cc1nc(C)c(C)nc1C | 3.36
173 | CN(C)CCOC(C)(c1ccccc1)c1ccccn1 (stereo not drawn) | 9.2
